Test results as given in PubChem BioAssay AID330 (DTP/NCI, 2004).
Where “and” joins values, the source holds several entries; their conditions need not be identical. Identical values can stand only once. Toxic doses and inconclusive results are not listed. Peptide text beside a SMILES is read from it.

System: P388 leukemia ip, CD2F1 mice, survival T/C
Experiment: NCI In Vivo Anticancer Drug Screen. Data for tumor model P388 Leukemia (intraperitoneal) in CD2F1 (CDF1) mice
Details: endpoint: median survival time, higher = longer survival
In short: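 Mice carrying the transplanted tumor received test compound or vehicle. Survival was recorded in each group, and the value is the treated-group measurement divided by that of the vehicle-treated control group.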

[1] = dose: 50.0 mg/kg/injection, schedule: Q01DX005 (ip), vehicle: saline
[2] = dose: 100.0 mg/kg/injection, schedule: Q01DX005 (ip), vehicle: saline
[3] = dose: 200.0 mg/kg/injection, schedule: Q01DX005 (ip), vehicle: saline
[4] = dose: 60.0 mg/kg/injection, schedule: Q01DX005 (ip), vehicle: saline with Tween-80
[5] = dose: 240.0 mg/kg/injection, schedule: Q01DX005 (ip), vehicle: saline with Tween-80
[6] = dose: 50.0 mg/kg/injection, schedule: Q01DX001 (ip), vehicle: Klucel (hydroxypropylcellulose) (HPC)
[7] = dose: 100.0 mg/kg/injection, schedule: Q01DX001 (ip), vehicle: Klucel (hydroxypropylcellulose) (HPC)
[8] = dose: 12.5 mg/kg/injection, schedule: Q01DX009 (ip), vehicle: saline
[9] = dose: 25.0 mg/kg/injection, schedule: Q01DX009 (ip), vehicle: saline
[10] = dose: 50.0 mg/kg/injection, schedule: Q01DX009 (ip), vehicle: saline with Tween-80
[11] = dose: 100.0 mg/kg/injection, schedule: Q01DX009 (ip), vehicle: saline with Tween-80
[12] = dose: 200.0 mg/kg/injection, schedule: Q01DX009 (ip), vehicle: saline with Tween-80
[13] = dose: 120.0 mg/kg/injection, schedule: Q01DX005 (ip), vehicle: saline with Tween-80
[14] = dose: 50.0 mg/kg/injection, schedule: Q01DX005 (ip), vehicle: Klucel (hydroxypropylcellulose) (HPC)
[15] = dose: 100.0 mg/kg/injection, schedule: Q01DX005 (ip), vehicle: Klucel (hydroxypropylcellulose) (HPC)
[16] = dose: 200.0 mg/kg/injection, schedule: Q01DX005 (ip), vehicle: Klucel (hydroxypropylcellulose) (HPC)
[17] = dose: 50.0 mg/kg/injection, schedule: Q01DX005 (ip), vehicle: saline with Tween-80
[18] = dose: 100.0 mg/kg/injection, schedule: Q01DX005 (ip), vehicle: saline with Tween-80
[19] = dose: 50.0 mg/kg/injection, schedule: Q01DX009 (ip), vehicle: saline
[20] = dose: 200.0 mg/kg/injection, schedule: Q01DX005 (ip), vehicle: saline with Tween-80
[21] = dose: 100.0 mg/kg/injection, schedule: Q01DX009 (ip), vehicle: saline
[22] = dose: 100.0 mg/kg/injection, schedule: Q04DX003 (ip), vehicle: saline
[23] = dose: 200.0 mg/kg/injection, schedule: Q04DX003 (ip), vehicle: saline
[24] = dose: 400.0 mg/kg/injection, schedule: Q04DX003 (ip), vehicle: saline
[25] = dose: 25.0 mg/kg/injection, schedule: Q01DX009 (ip), vehicle: saline with Tween-80

Cc1cc(N=Nc2ccc(-c3ccc(N=Nc4ccc(O)c(C(=O)O)c4)cc3)cc2)c(N)c(N=Nc2cc(C(=O)O)ccc2Cl)c1N was tested, and the T/C [1] was 104 % of control, the T/C [2] was 104 % of control and the T/C [3] was 90 % of control.

With C=c1cc2c(cc1=C)C(=O)c1ccccc1C2=O the T/C (dose: 15.0 mg/kg/injection, schedule: Q01DX005 (ip), vehicle: saline with Tween-80) was 89 % of control, the T/C (dose: 30.0 mg/kg/injection, schedule: Q01DX005 (ip), vehicle: saline with Tween-80) was 90 % of control and the T/C [4] was 86 % of control and 91 % of control. For the same molecule, the T/C [5] was 89 % of control.

CN1CCC(O)(c2nccc3ccccc23)CC1 was tested, and the T/C [6] was 111 % of control and the T/C [7] was 96 % of control.

With Clc1ccc(-c2nnc(-c3cccc(Cl)n3)o2)c(Cl)c1 the T/C (dose: 43.8 mg/kg/injection, schedule: Q01DX005 (ip), vehicle: saline with Tween-80) was 99 % of control and the T/C (dose: 87.5 mg/kg/injection, schedule: Q01DX005 (ip), vehicle: saline with Tween-80) was 87 % of control.

With CCCNC(=O)/C(C)=C(\C)c1ccccc1 the T/C (dose: 50.0 mg/kg/injection, schedule: Q04DX003 (ip), vehicle: Klucel (hydroxypropylcellulose) (HPC)) was 100 % of control, the T/C (dose: 100.0 mg/kg/injection, schedule: Q04DX003 (ip), vehicle: Klucel (hydroxypropylcellulose) (HPC)) was 99 % of control and the T/C (dose: 200.0 mg/kg/injection, schedule: Q04DX003 (ip), vehicle: Klucel (hydroxypropylcellulose) (HPC)) was 100 % of control.

For CN=C(c1ccc(NC(=O)c2ccc(C(=O)Nc3ccc(C(=NC)N4CCCC4)cc3)cc2)cc1)N1CCCC1, the T/C (dose: 0.39 mg/kg/injection, schedule: Q01DX005 (ip), vehicle: Klucel (hydroxypropylcellulose) (HPC)) was 99 % of control, the T/C (dose: 0.78 mg/kg/injection, schedule: Q01DX005 (ip), vehicle: Klucel (hydroxypropylcellulose) (HPC)) was 93 % of control and the T/C (dose: 1.56 mg/kg/injection, schedule: Q01DX005 (ip), vehicle: Klucel (hydroxypropylcellulose) (HPC)) was 94 % of control. For the same molecule, the T/C (dose: 3.12 mg/kg/injection, schedule: Q01DX005 (ip), vehicle: Klucel (hydroxypropylcellulose) (HPC)) was 97 % of control.

For [Cu+2].[NH-]C(Cc1cnc[nH]1)C(=O)O.[NH-]CC(=O)O (configuration not stated), the T/C (dose: 6.25 mg/kg/injection, schedule: Q01DX009 (ip), vehicle: saline) was 97 % of control, the T/C [8] was 93 % of control and 95 % of control and the T/C [9] was 97 % of control.

In the case of Cc1cc(O)c(C(c2ccc(C#N)cc2)c2c(O)cc(C)[nH]c2=O)c(=O)[nH]1, the T/C [10] is reported as 95 % of control, the T/C [11] is reported as 94 % of control and the T/C [12] is reported as 98 % of control.

For N#CNC1=C(C#N)C(c2ccccc2)CC(=O)N1 (configuration not stated), the T/C [4] was 97 % of control, the T/C [13] was 101 % of control and the T/C [5] was 100 % of control.

With CC(Cl)CN1COc2ccc3ccc4c(c3c2C1)CN(CC(C)Cl)CO4 (configuration not stated) the T/C [14] was 106 % of control and 107 % of control and 117 % of control, the T/C [15] was 107 % of control and 112 % of control and 123 % of control and the T/C [16] was 117 % of control and 124 % of control. The T/C (dose: 400.0 mg/kg/injection, schedule: Q01DX005 (ip), vehicle: Klucel (hydroxypropylcellulose) (HPC)) was 116 % of control.

COc1ccccc1-n1c(=S)n(-c2ccccc2C)c2nc3ccccc3nc1/c2=N\Nc1ccccn1 was tested, and the T/C [17] was 100 % of control and the T/C [18] was 102 % of control.

In the case of Cc1[nH]c2ccc(N(C)C)cc2c(=O)c1CN(Cc1ccccc1)Cc1c(C)[nH]c2ccc(N(C)C)cc2c1=O, the T/C (dose: 7.5 mg/kg/injection, schedule: Q01DX005 (ip), vehicle: Klucel (hydroxypropylcellulose) (HPC)) is reported as 94 % of control, the T/C (dose: 15.0 mg/kg/injection, schedule: Q01DX005 (ip), vehicle: Klucel (hydroxypropylcellulose) (HPC)) is reported as 89 % of control and the T/C (dose: 30.0 mg/kg/injection, schedule: Q01DX005 (ip), vehicle: Klucel (hydroxypropylcellulose) (HPC)) is reported as 86 % of control.

CN(C)CCCCNc1ccc(NCCCCN(C)C)c2c1C(=O)c1c(O)ccc(O)c1C2=O was tested, and the T/C [8] was 100 % of control, the T/C [9] was 108 % of control and the T/C [19] was 106 % of control.

CCCc1nc(N)[nH]c(=O)c1CCCCc1ccccc1 was tested, and the T/C [4] was 90 % of control and 96 % of control, the T/C [13] was 88 % of control and 103 % of control and the T/C [5] was 96 % of control and 87 % of control.

With N=C(N)SCC(=O)n1ccc(=O)n(C(=O)CSC(=N)N)c1=O the T/C (dose: 100.0 mg/kg/injection, schedule: Q04DX002 (ip), vehicle: saline) was 100 % of control, the T/C (dose: 200.0 mg/kg/injection, schedule: Q04DX002 (ip), vehicle: saline) was 100 % of control and the T/C (dose: 400.0 mg/kg/injection, schedule: Q04DX002 (ip), vehicle: saline) was 96 % of control.

CC(N)C(=O)NC(Cc1ccc(O)cc1)C(N)=O (stereo not drawn) (H-Ala-Tyr-NH2; configuration not given here) was tested, and the T/C [14] was 108 % of control, the T/C [15] was 105 % of control and the T/C [16] was 100 % of control.

In the case of NC1(N2SC(S)=C3CCCC=C32)CCCCC1, the T/C [10] is reported as 97 % of control, the T/C [11] is reported as 100 % of control and the T/C [12] is reported as 105 % of control.

In the case of CCCCCCCCCCC(=O)N(C(C)CC(C)C)C1CC(C)CC(C)(C)C1 (configuration not stated), the T/C [17] is reported as 104 % of control, the T/C [18] is reported as 100 % of control and the T/C [20] is reported as 101 % of control.

O=CN1CCCC1Cc1ccccc1 (configuration not stated) was tested, and the T/C [6] was 101 % of control and the T/C [7] was 96 % of control.

For COc1cc2cc(=O)n(N)c(C)c2cc1OC, the T/C [19] was 108 % of control, the T/C [21] was 106 % of control and the T/C (dose: 200.0 mg/kg/injection, schedule: Q01DX009 (ip), vehicle: saline) was 99 % of control.

With C1CSCN1 the T/C [1] was 107 % of control, the T/C [2] was 100 % of control and the T/C [3] was 115 % of control.

For CCOC(=O)N[N+]12CCN(CC1)CC2, the T/C [22] was 100 % of control, the T/C [23] was 102 % of control and the T/C [24] was 102 % of control.

For CC(=O)OC/C(C)=N\NS(=O)(=O)c1cc(Cl)c(Cl)cc1Cl, the T/C [19] was 99 % of control and the T/C [21] was 86 % of control.

CN=C(N)N/N=C(\C)c1ccc2oc3ccc(/C(C)=N/NC(N)=NC)cc3c2c1 was tested, and the T/C (dose: 25.0 mg/kg/injection, schedule: Q04DX002 (ip), vehicle: saline with Tween-80) was 150 % of control, the T/C (dose: 50.0 mg/kg/injection, schedule: Q04DX002 (ip), vehicle: saline with Tween-80) was 150 % of control and the T/C (dose: 100.0 mg/kg/injection, schedule: Q04DX002 (ip), vehicle: saline with Tween-80) was 154 % of control.

In the case of NNC(=O)C(O)C(O)C(O)C(O)CO (configuration not stated), the T/C [1] is reported as 92 % of control, the T/C [2] is reported as 100 % of control and the T/C [3] is reported as 100 % of control.

For NS(=O)(=O)/C=C(\Cl)c1ccccc1, the T/C [25] was 102 % of control, the T/C [10] was 94 % of control and the T/C [11] was 94 % of control.

With COc1ccccc1NC(=O)C1=C(C)NC(C)=C(C(=O)Nc2ccccc2OC)C1c1c(Cl)cccc1Cl the T/C [17] was 94 % of control, the T/C [18] was 98 % of control and the T/C [20] was 95 % of control.

For CC(CC1(c2ccccc2)C(=O)NC(=O)NC1=O)OC(=O)c1ccc([N+](=O)[O-])cc1 (configuration not stated), the T/C (dose: 50.0 mg/kg/injection, schedule: Q01DX009 (ip), vehicle: Klucel (hydroxypropylcellulose) (HPC)) was 103 % of control, the T/C (dose: 100.0 mg/kg/injection, schedule: Q01DX009 (ip), vehicle: Klucel (hydroxypropylcellulose) (HPC)) was 100 % of control and the T/C (dose: 200.0 mg/kg/injection, schedule: Q01DX009 (ip), vehicle: Klucel (hydroxypropylcellulose) (HPC)) was 99 % of control.

With COC1C=COC2(C)Oc3c(C)c(O)c4c(O)c(c(C5SCCS5)c(O)c4c3C2=O)NC(=O)/C(C)=C\C=CC(C)C(O)C(C)C(O)C(C)C(OC(C)=O)C1C (configuration not stated) the T/C [25] was 100 % of control and 92 % of control, the T/C [10] was 105 % of control and 106 % of control and 92 % of control and the T/C [11] was 100 % of control and 108 % of control. The T/C [12] was 109 % of control and 111 % of control and 115 % of control.

For CC1(C)COC(=O)/C1=C1\SC(=O)NC1=O, the T/C [22] was 95 % of control, the T/C [23] was 94 % of control and the T/C [24] was 102 % of control.

For O=C1CC2c3ccccc3CCN2C2=C1CCC2 (configuration not stated), the T/C [17] was 96 % of control and the T/C [18] was 104 % of control.

For COc1ccccc1P(C)(=O)c1ccccc1 (configuration not stated), the T/C [14] was 102 % of control, the T/C [15] was 103 % of control and the T/C [16] was 98 % of control.

For CC(=O)OCC1CN2CC1(c1ccccc1)C(=O)NC2=O (configuration not stated), the T/C (dose: 100.0 mg/kg/injection, schedule: Q01DX001 (ip), vehicle: saline) was 102 % of control, the T/C (dose: 200.0 mg/kg/injection, schedule: Q01DX001 (ip), vehicle: saline) was 102 % of control and the T/C (dose: 400.0 mg/kg/injection, schedule: Q01DX001 (ip), vehicle: saline) was 100 % of control.
